Assay results taken from publication PMC6604316 (Virology Journal, 2019).
Like-named read-outs stand apart in the source and are kept apart here. Marks after values point to notes of the source that are not given here.

Molecular target: NA of A/Texas/12/2007 (H3N2 119 V) (Influenza A virus (A/Texas/12/2007(H3N2)), UniProt D1FVK3, I119V)
Test: biochemical
Assay type: biochemical

| Molecule | IC50 [nM] | Fold change | IC50 (read-out: Mean IC50 (nM) ± SD) [nM] |
| --- | --- | --- | --- |
| CC(=O)N[C@H]1[C@H]([C@H](O)[C@H](O)CO)OC(C(=O)O)=C[C@@H]1N=C(N)N [Zanamivir, zanamivir] | 1.56 ± 0.55 |  |  |
| oseltamivir carboxylate |  | 520.08^c fold | 62.4 ± 2.16 |
